Each structure is given as a SMILES string.

Holding throughout (assay type): cell-based
What all share (conditions): isolated compound

Experiment [1] has as its system A549 cells. As to the kind of experiment: MTT survival assay, human lung cancer cell line A549. As to the method:
(§1) The Anctin K(AnK) and dehydroeburicoic acid (DeHBA) separately isolated from the Extraction A of Example 1 were added into the culture media of human lung-cancer cells, A549, CH27 or H460, to test for tumor cell survival by using anti-cancer drug screen model. This survival assay was carried out with the widely known MTT (3-[4,5-dimethylthiazol-2-yl]2,5-diphenyltetrazolium bromide) assay.
(§2) Lung cancer cell lines, A549 cells are adenocarcinomic human alveolar basal epithelial cells. A549 cell line are widely used as an in vitro model for a type II pulmonary epithelial cell model for drug metabolism and as a transfection host, while CH27 is human lung squamous carcinoma cell and H460 is human lung non-small cell carcinoma cell. The human lung-cancer cells, A549, CH27 and H460 were cultivated in media containing fetal calf serum for 10 hours. The proliferated cells were washed once with PBS, then treated with 1× trypsin-EDTA and centrifuged at 2000 rpm for 10 minutes. The supernatant was discarded and the cell pellet was re-suspended in […] of fresh culture medium by gently shaking. The cells were placed in a 96-well plate.
(§3) Subsequently, the plates were read on an ELISA reader to determine the survival rates. The half maximal inhibitory concentration (IC50) values were calculated and results of ex vivo survival assay were thus obtained.
(§4) By using the same manner as the method described above, respectively human lung cancer cell line A549, CH27 and H460 was cultured. After then, the pharmaceutical compositions A-F of the present invention was applied separately, and then MTT assay for each sample was measured to assess the inhibition effectiveness of various cancer cell activity while using pharmaceutical compositions A-F of the present invention.
(Tetrazolium dyes change colour on reduction, which living cells bring about.)

The subject of experiment [2] is CH27 cells. As to the kind of experiment: MTT survival assay, human lung cancer cell line CH27. As to the method: as §1, §2, §3, §4
Experiment [3] deals with H460 cells. As to the kind of experiment: MTT survival assay, human lung cancer cell line H460. As to the method: as §1, §2, §3, §4

For the compound `C=C(CC[C@@H](C)[C@H]1CC[C@H]2C3=C(C(=O)C[C@]12C)[C@@]1(C)CC[C@@H](O)[C@](C)(O)C1C[C@@H]3O)C(C)C(=O)O` (stereo partly drawn) [Anctin K], the “half-maximal inhibitory concentration (IC50)” value in experiment [1], in experiment [2] and in experiment [3] was “relatively low” in each case. For the same compound, the “survival rate of lung cancer cell” value in experiment [1], in experiment [2] and in experiment [3] was “decreasing the survival rate” throughout.
With `C=C(CC[C@@H](C(=O)O)[C@H]1CC[C@@]2(C)C3=CC[C@H]4C(C)(C)[C@@H](O)CC[C@]4(C)C3=CC[C@]12C)C(C)C` [dehydroeburicoic acid], the “half-maximal inhibitory concentration (IC50)” value in experiment [1], in experiment [2] and in experiment [3] was “relatively low” in each case. Also, the “survival rate of lung cancer cell” value in experiment [1], in experiment [2] and in experiment [3] was “decreasing the survival rate” throughout.

Source of the values: patent US20170189418A1, “PHARMACEUTICAL COMPOSITION FOR TREATING LUNG CANCER” (MA SHEN KAI RUEI CO., LTD., priority 2015, published 2017).
